This passage reports IC50 results from US20240199587A1, “HETEROCYCLIC COMPOUNDS” (Hoffmann-La Roche Inc., priority 2021, published 2024).

For this assay, the target named is T1, MAGL (Homo sapiens, UniProt Q99685).
T1 sequence (Q99685 1-303): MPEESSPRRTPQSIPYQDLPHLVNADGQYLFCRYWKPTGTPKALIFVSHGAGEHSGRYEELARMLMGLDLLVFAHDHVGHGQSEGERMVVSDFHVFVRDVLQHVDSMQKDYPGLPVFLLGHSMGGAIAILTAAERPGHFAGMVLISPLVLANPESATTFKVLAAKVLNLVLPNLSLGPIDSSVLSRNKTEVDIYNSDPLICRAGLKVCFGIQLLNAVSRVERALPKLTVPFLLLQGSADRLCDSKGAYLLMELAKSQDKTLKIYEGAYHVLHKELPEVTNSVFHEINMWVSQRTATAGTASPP
Nature of the assay: 2-AG assay (MAGL inhibitory activity, hydrolysis of 2-arachidonoylglycerol to arachidonic acid followed by mass spectrometry). The format is biochemical. The settings on record: 8 μM 2-arachidonoylglycerol, 15 min pre-incubation, 30 min incubation at RT, RapidFire MS readout. In short, it runs like this: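 Human MAGL ([…] final) pre-incubated 15 min at RT with compound in 50 mM TRIS, 1 mM EDTA, 0.01% Tween-20, 2.5% DMSO; 8 μM 2-AG then added for 30 min at RT. Acetonitrile quench with d8-arachidonic acid; arachidonic acid measured by RapidFire SPE–MS/MS, activity from arachidonic acid/d8 ratio.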
For `O=C(N1C[C@H]2C[C@H](Oc3ccc(C(F)(F)F)c(F)c3)C[C@H]2C1)N1CC2(CC(n3cnc(C4CC4)n3)C2)C1` [Example 117, [6-(3-cyclopropyl-1,2,4-triazol-1-yl)-2-azaspiro[3.3]heptan-2-yl]-[rac-(3aS,6aR)-5-[3-fluoro-4-(trifluoromethyl)phenoxy]-3,3a,4,5,6,6a-hexahydro-1H-cyclopenta[c]pyrrol-2-yl]methanone], it took 3.5 nM to reach half-maximal inhibition (IC50). In the case of `N#Cc1cc(O[C@H]2C[C@@H]3CN(C(=O)N4CC5(CC(n6cnc(C7CC7)n6)C5)C4)C[C@@H]3C2)ccc1C(F)(F)F` [Example 118, 5-[rac-(3aS,6aR)-2-[6-(3-cyclopropyl-1,2,4-triazol-1-yl)-2-azaspiro[3.3]heptane-2-carbonyl]-3,3a,4,5,6,6a-hexahydro-1H-cyclopenta[c]pyrrol-5-yl]oxy]-2-(trifluoromethyl) benzonitrile] it was 4.7 nM. Under `O=C(N1C[C@H]2C[C@H](Oc3ccc(F)c(F)c3)C[C@H]2C1)N1CC2(CC(n3cnc(C4CC4)n3)C2)C1` [Example 119, [6-(3-cyclopropyl-1,2,4-triazol-1-yl)-2-azaspiro[3.3]heptan-2-yl]-[rac-(3aS,6aR)-5-(3,4-difluorophenoxy)-3,3a,4,5,6,6a-hexahydro-1H-cyclopenta[c]pyrrol-2-yl]methanone] stands 7.4 nM; under `O=C(N1C[C@H]2C[C@H](Oc3ccc(F)c(C(F)(F)F)c3)C[C@H]2C1)N1CC2(CC(n3cnc(C4CC4)n3)C2)C1` [Example 120, [6-(3-cyclopropyl-1,2,4-triazol-1-yl)-2-azaspiro[3.3]heptan-2-yl]-[rac-(3aS,6aR)-5-[4-fluoro-3-(trifluoromethyl)phenoxy]-3,3a,4,5,6,6a-hexahydro-1H-cyclopenta[c]pyrrol-2-yl]methanone], 1 nM. `O=C(N1C[C@H]2C[C@H](Oc3ccc(F)cc3F)C[C@H]2C1)N1CC2(CC(n3cnc(C4CC4)n3)C2)C1` [Example 121, [6-(3-cyclopropyl-1,2,4-triazol-1-yl)-2-azaspiro[3.3]heptan-2-yl]-[rac-(3aS,6aR)-5-(2,4-difluorophenoxy)-3,3a,4,5,6,6a-hexahydro-1H-cyclopenta[c]pyrrol-2-yl]methanone]: 5.4 nM corresponded to half-maximal inhibition (IC50). Take `COc1cc(F)ccc1O[C@H]1C[C@@H]2CN(C(=O)N3CC4(CC(n5cnc(C6CC6)n5)C4)C3)C[C@@H]2C1` [Example 122, [6-(3-cyclopropyl-1,2,4-triazol-1-yl)-2-azaspiro[3.3]heptan-2-yl]-[rac-(3aS,6aR)-5-(4-fluoro-2-methoxy-phenoxy)-3,3a,4,5,6,6a-hexahydro-1H-cyclopenta[c]pyrrol-2-yl]methanone]: it took 7.3 nM to reach half-maximal inhibition (IC50).

On to `CS(=O)(=O)c1cc(F)ccc1O[C@H]1C[C@@H]2CN(C(=O)N3CC4(CC(n5cnc(C6CC6)n5)C4)C3)C[C@@H]2C1` [Example 123, [6-(3-cyclopropyl-1,2,4-triazol-1-yl)-2-azaspiro[3.3]heptan-2-yl]-[rac-(3aS,6aR)-5-(4-fluoro-2-methylsulfonyl-phenoxy)-3,3a,4,5,6,6a-hexahydro-1H-cyclopenta[c]pyrrol-2-yl]methanone], for which half-maximal inhibition (IC50) required 41.9 nM. Consider `O=C(N1C[C@H]2C[C@H](Oc3c(F)cc(F)cc3F)C[C@H]2C1)N1CC2(CC(n3cnc(C4CC4)n3)C2)C1` [Example 124, [6-(3-cyclopropyl-1,2,4-triazol-1-yl)-2-azaspiro[3.3]heptan-2-yl]-[rac-(3aS,6aR)-5-(2,4,6-trifluorophenoxy)-3,3a,4,5,6,6a-hexahydro-1H-cyclopenta[c]pyrrol-2-yl]methanone], for which the IC50 (in general, the concentration at which inhibition is half-maximal) amounted to 4 nM.

As to `Cc1cc(O[C@H]2C[C@@H]3CN(C(=O)N4CC5(CC(n6cnc(C7CC7)n6)C5)C4)C[C@@H]3C2)ccc1F` [Example 125, [6-(3-cyclopropyl-1,2,4-triazol-1-yl)-2-azaspiro[3.3]heptan-2-yl]-[rac-(3aS,6aR)-5-(4-fluoro-3-methyl-phenoxy)-3,3a,4,5,6,6a-hexahydro-1H-cyclopenta[c]pyrrol-2-yl]methanone], the IC50 turned out to be 4.6 nM. Under `N#Cc1cc(O[C@H]2C[C@@H]3CN(C(=O)N4CC5(CC(n6cnc(C7CC7)n6)C5)C4)C[C@@H]3C2)ccc1F` [Example 127, 2-fluoro-5-[[rac-(3aS,6aR)-2-[6-(3-cyclopropyl-1,2,4-triazol-1-yl)-2-azaspiro[3.3]heptane-2-carbonyl]-3,3a,4,5,6,6a-hexahydro-1H-cyclopenta[c]pyrrol-5-yl]oxy]benzonitrile] stands 14.4 nM; under `Cc1cc(F)c(F)cc1O[C@H]1C[C@@H]2CN(C(=O)N3CC4(CC(n5cnc(C6CC6)n5)C4)C3)C[C@@H]2C1` [Example 128, [6-(3-cyclopropyl-1,2,4-triazol-1-yl)-2-azaspiro[3.3]heptan-2-yl]-[rac-(3aS,6aR)-5-(4,5-difluoro-2-methyl-phenoxy)-3,3a,4,5,6,6a-hexahydro-1H-cyclopenta[c]pyrrol-2-yl]methanone], 1.8 nM. `N#Cc1cc(F)ccc1O[C@H]1C[C@@H]2CN(C(=O)N3CC4(CC(n5cnc(C6CC6)n5)C4)C3)C[C@@H]2C1` [Example 129, 5-fluoro-2-[[rac-(3aS,6aR)-2-[6-(3-cyclopropyl-1,2,4-triazol-1-yl)-2-azaspiro[3.3]heptane-2-carbonyl]-3,3a,4,5,6,6a-hexahydro-1H-cyclopenta[c]pyrrol-5-yl]oxy]benzonitrile]: the IC50 was 72.2 nM. Under `CS(=O)(=O)c1cc(O[C@H]2C[C@@H]3CN(C(=O)N4CC5(CC(n6cnc(C7CC7)n6)C5)C4)C[C@@H]3C2)ccc1F` [Example 130, [6-(3-cyclopropyl-1,2,4-triazol-1-yl)-2-azaspiro[3.3]heptan-2-yl]-[rac-(3aS,6aR)-5-(4-fluoro-3-methylsulfonyl-phenoxy)-3,3a,4,5,6,6a-hexahydro-1H-cyclopenta[c]pyrrol-2-yl]methanone] stands 47.6 nM; under `COc1cc(O[C@H]2C[C@@H]3CN(C(=O)N4CC5(CC(n6cnc(C7CC7)n6)C5)C4)C[C@@H]3C2)ccc1F` [Example 131, [6-(3-cyclopropyl-1,2,4-triazol-1-yl)-2-azaspiro[3.3]heptan-2-yl]-[rac-(3aS,6aR)-5-(4-fluoro-3-methoxy-phenoxy)-3,3a,4,5,6,6a-hexahydro-1H-cyclopenta[c]pyrrol-2-yl]methanone], 5.9 nM; under `O=C(N1C[C@H]2C[C@H](Oc3cc(C(F)(F)F)c(F)cc3F)C[C@H]2C1)N1CC2(CC(n3cnc(C4CC4)n3)C2)C1` [Example 132, [6-(3-cyclopropyl-1,2,4-triazol-1-yl)-2-azaspiro[3.3]heptan-2-yl]-[rac-(3aS,6aR)-5-[2,4-difluoro-5-(trifluoromethyl)phenoxy]-3,3a,4,5,6,6a-hexahydro-1H-cyclopenta[c]pyrrol-2-yl]methanone], 1.7 nM.

In turn, `O=C(N1C[C@H]2C[C@H](Oc3ccc(F)c(OC(F)(F)F)c3)C[C@H]2C1)N1CC2(CC(n3cnc(C4CC4)n3)C2)C1` [Example 133, [6-(3-cyclopropyl-1,2,4-triazol-1-yl)-2-azaspiro[3.3]heptan-2-yl]-[rac-(3aS,6aR)-5-[4-fluoro-3-(trifluoromethoxy)phenoxy]-3,3a,4,5,6,6a-hexahydro-1H-cyclopenta[c]pyrrol-2-yl]methanone] had a concentration for half-maximal inhibition (IC50) of 1.3 nM. `O=C(N1C[C@H]2C[C@H](Oc3ccc(OC(F)(F)F)cc3)C[C@H]2C1)N1CC2(CC(n3cnc(C4CC4)n3)C2)C1` [Example 134, [6-(3-cyclopropyl-1,2,4-triazol-1-yl)-2-azaspiro[3.3]heptan-2-yl]-[rac-(3aS,6aR)-5-[4-(trifluoromethoxy)phenoxy]-3,3a,4,5,6,6a-hexahydro-1H-cyclopenta[c]pyrrol-2-yl]methanone] gave a concentration for half-maximal inhibition (IC50) of 4.3 nM. For `O=C(N1C[C@H]2C[C@H](Oc3ccc(OC(F)(F)F)c(F)c3)C[C@H]2C1)N1CC2(CC(n3cnc(C4CC4)n3)C2)C1` [Example 135, [6-(3-cyclopropyl-1,2,4-triazol-1-yl)-2-azaspiro[3.3]heptan-2-yl]-[rac-(3aS,6aR)-5-[3-fluoro-4-(trifluoromethoxy)phenoxy]-3,3a,4,5,6,6a-hexahydro-1H-cyclopenta[c]pyrrol-2-yl]methanone], the IC50 worked out at 3.1 nM. For `O=C(N1CC(OCc2cncc(C(F)(F)F)c2)C1)N1CC2(CC(n3cnc(C4CC4)n3)C2)C1` [Example 136, [6-(3-cyclopropyl-1,2,4-triazol-1-yl)-2-azaspiro[3.3]heptan-2-yl]-[3-[[5-(trifluoromethyl)-3-pyridyl]methoxy]azetidin-1-yl]methanone], the midpoint of inhibition, the IC50, lay at 14 nM. `O=C(N1CC2(CC(OCC3(C(F)(F)F)CC3)C2)C1)N1CC2(CC(n3cnc(C4CC4)n3)C2)C1` [Example 137, [6-(3-cyclopropyl-1,2,4-triazol-1-yl)-2-azaspiro[3.3]heptan-2-yl]-[6-[[1-(trifluoromethyl)cyclo-propyl]methoxy]-2-azaspiro[3.3]heptan-2-yl]methanone]: the IC50 was determined as 4.5 nM. With `CC1C(OCc2ccc(C(F)(F)F)cc2)CN1C(=O)N1CC2(CC(n3cnc(C4CC4)n3)C2)C1` (stereo not drawn) [Example 138, [6-(3-cyclopropyl-1,2,4-triazol-1-yl)-2-azaspiro[3.3]heptan-2-yl]-[2-methyl-3-[[4-(trifluoromethyl)phenyl]methoxy]azetidin-1-yl]methanone], inhibition was half-maximal at 0.8 nM (IC50).
